Among the data in patent US12350270B2, “Antimalarial agents” (Merck Sharp & Dohme LLC, priority 2019, dated 2025) are EC50 values, retold here.

By EC50 is commonly meant the concentration giving half of the maximal effect. A low value points to greater potency.

The test system of the first test is parasites (ring stage, in human red blood cell culture). Kind of test: Parasite LDH growth assay (antiparasite potency, Parasite Assay). The format is cell-based, Plasmodium falciparum. Conditions: 0.7% rings, 2% haematocrit, 72 hours at 37° C., LDH readout of parasite growth. In a few lines:
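Growth was read by an LDH assay after a freeze–thaw cycle (−80 °C overnight, 4 h thaw at RT). Before that, parasites grew with compound for 72 h at 37 °C under gassed, humidified conditions. The input was a ring-stage culture adjusted to 0.7% parasitemia and 2% haematocrit in serum (5%)/albumax (0.5%)-supplemented RPMI-Hepes.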
`CC1(C)CC(=O)N([C@@H]2CCOc3ccc(C(=O)NC4c5ccccc5OCC4(O)C(F)(F)F)cc32)C(=N)N1` (single isomer, unassigned) [Example 234A] gave an EC50 of 22.5 nM. In other words, the double-digit nanomolar range.
For the molecule `CCC1(CC)CC(=O)N([C@@H]2CCOc3ccc(C(=O)NC4c5cc(F)ccc5OCC4(C)O)cc32)C(=N)N1` (single isomer, unassigned) [Example 226B], the concentration for a half-maximal effect (EC50) turned out to be 69 nM.
`CCC1(CC)CC(=O)N([C@@H]2CCOc3ccc(C(=O)NC4c5ccc(OC)cc5OCC4(C)O)cc32)C(=N)N1` (single isomer, unassigned) [Example 258D] registered an EC50 of 6.7 nM.
`CCC1(CC)CC(=O)N([C@H]2c3cc(C(=O)N[C@@H]4c5ccccc5OC(C)(C)[C@H]4O)ccc3OC2(C)COC)C(=N)N1` (single isomer, unassigned) [Example 73A] came in with an EC50 of 0.3 nM.

Staying with this test, now noted: Plasmodium falciparum, Erythrocyte, 72 h, 0.7% rings, 2% haematocrit, 72 hours at 37° C., LDH readout of parasite growth.
The molecule `C[C@@H]1C[C@@H](N2C(=N)NC(C)(C)CC2=O)c2cc(C(=O)N[C@@H]3c4ccccc4C[C@]3(C)O)ccc21` [Example 90, (1R,3R)-N-[(1R,2S)-2-hydroxy-2-methyl-indan-1-yl]-3-(2-imino-4,4-dimethyl-6-oxo-hexahydropyrimidin-1-yl)-1-methyl-indane-5-carboxamide] had an EC50 of 26.8 nM.
As for `CC1(C)CC(=O)N(C2CCS(=O)(=O)c3ccc(C(=O)N[C@@H]4c5ccccc5OC[C@]4(C)O)cc32)C(=N)N1` (stereo partly drawn) [Example 229, N-[(3R,4R)-3-hydroxy-3-methyl-chroman-4-yl]-4-(2-imino-4,4-dimethyl-6-oxo-hexahydropyrimidin-1-yl)-1,1-dioxo-3,4-dihydro-2H-thiochromene-6-carboxamide], a half-maximal effect (EC50) was put at 59.3 nM.
`CC[C@]1(C)CC(=O)N([C@@H]2c3cc(C(=O)N[C@@H]4c5ccccc5OC(C)(C)[C@H]4O)ccc3C[C@@H]2C)C(=N)N1` [Example 166, (2S,3S)-3-[(4R)-4-ethyl-2-imino-4-methyl-6-oxo-hexahydropyrimidin-1-yl]-N-[(3S,4R)-3-hydroxy-2,2-dimethyl-chroman-4-yl]-2-methyl-indane-5-carboxamide]: the concentration giving a half-maximal response (EC50) turned out to be 154 nM. Compared with the last molecule, the EC50 is about 2.6-fold higher.
Turning to `CCC1(CC)CC(=O)N([C@@H]2C[C@@H](COC)Oc3ccc(C(=O)N[C@@H]4c5ccccc5OC[C@@]4(C)O)cc32)C(=N)N1` [Example 283, (2S,4R)-4-(4,4-diethyl-2-imino-6-oxo-hexahydropyrimidin-1-yl)-N-[(3S,4R)-3-hydroxy-3-methyl-chroman-4-yl]-2-(methoxymethyl)chromane-6-carboxamide], the EC50 worked out at 2.6 nM.
`CC[C@]1(C)CC(=O)N([C@@H]2CCc3ccc(C(=O)N[C@@H]4c5ccccc5C[C@H]4O)cc32)C(=N)N1` [Example 81, (3R)-3-[(4R)-4-ethyl-2-imino-4-methyl-6-oxo-hexahydropyrimidin-1-yl]-N-[(1R,2R)-2-hydroxyindan-1-yl]indane-5-carboxamide] came in with an EC50 of 6.6 nM.
Same read-out and setting: in the case of `C[C@@H]1Cc2ccc(C(=O)N[C@@H]3c4ccccc4OC(C)(C)[C@H]3O)cc2[C@@H]1N1C(=N)NC(C)(C)CC1=O` [Example 135, (2R,3R)-N-[(3S,4R)-3-hydroxy-2,2-dimethyl-chroman-4-yl]-3-(2-imino-4,4-dimethyl-6-oxo-hexahydropyrimidin-1-yl)-2-methyl-indane-5-carboxamide] it was 0.9 nM.
The same measure, in the same setting: the result for `CCC1(CC)CC(=O)N([C@@H]2CCOc3ccc(C(=O)N[C@@H]4c5cc(F)ccc5OC(C)(C)[C@H]4O)cc32)C(=N)N1` [Example 25A, (R)-4-(4,4-diethyl-2-imino-6-oxotetrahydropyrimidin-1(2H)-yl)-N-((3S,4R)-6-fluoro-3-hydroxy-2,2-dimethylchroman-4-yl)chromane-6-carboxamide] reads 0.5 nM.
For the molecule `CCC1(CC)CC(=O)N([C@@H]2CCOc3ccc(C(=O)N[C@@H]4c5ccccc5OC[C@H]4OC)cc32)C(=N)N1` [Example 173, (4R)-4-(4,4-diethyl-2-imino-6-oxo-hexahydropyrimidin-1-yl)-N-[(3S,4R)-3-methoxychroman-4-yl]chromane-6-carboxamide], the midpoint of the response, the EC50, lay at 2.8 nM. This EC50 lies about 5.6-fold higher than the previous one.
On to `CC1(C)CC(=O)N([C@@H]2CCc3ccc(C(=O)N[C@@H]4c5ccccc5OC(C)(C)[C@H]4O)cc32)C(=N)N1` [Example 98, (3R)-N-[(3S,4R)-3-hydroxy-2,2-dimethyl-chroman-4-yl]-3-(2-imino-4,4-dimethyl-6-oxo-hexahydropyrimidin-1-yl)indane-5-carboxamide], for which the EC50 was 1.5 nM.
`CC[C@]1(C)CC(=O)N([C@H]2c3cc(C(=O)N[C@@H]4c5ccccc5OC(C)(C)[C@H]4O)ccc3C[C@H]2C)C(=N)N1` [Example 168, (2R,3R)-3-[(4R)-4-ethyl-2-imino-4-methyl-6-oxo-hexahydropyrimidin-1-yl]-N-[(3S,4R)-3-hydroxy-2,2-dimethyl-chroman-4-yl]-2-methyl-indane-5-carboxamide] returned an EC50 of 0.4 nM.
For the molecule `CC[C@]1(C)CC(=O)N([C@@H]2CCOc3ccc(C(=O)N[C@@H]4c5ccccc5OC[C@H]4OC)cc32)C(=N)N1` [Example 141, (4R)-4-[(4R)-4-ethyl-2-imino-4-methyl-6-oxo-hexahydropyrimidin-1-yl]-N-[(3S,4R)-3-methoxychroman-4-yl]chromane-6-carboxamide], the EC50 turned out to be 8.4 nM.
On the same count and under the same terms, in the case of `CC1(C)CC(=O)N(C2CCS(=O)(=O)c3ccc(C(=O)N[C@@H]4c5ccccc5C[C@@]4(C)O)cc32)C(=N)N1` (stereo partly drawn) [Example 188, N-[(1R,2R)-2-hydroxy-2-methyl-indan-1-yl]-4-(2-imino-4,4-dimethyl-6-oxo-hexahydropyrimidin-1-yl)-1,1-dioxo-3,4-dihydro-2H-thiochromene-6-carboxamide] it was 203 nM; in that of `CCC1(CC)CC(=O)N(C2c3cc(C(=O)N[C@@H]4c5ccccc5C[C@H]4O)ccc3OCC2(C)COC)C(=N)N1` (stereo partly drawn) [Example 244, 4-(4,4-diethyl-2-imino-6-oxo-hexahydropyrimidin-1-yl)-N-[(1R,2R)-2-hydroxyindan-1-yl]-3-(methoxymethyl)-3-methyl-chromane-6-carboxamide], 7.8 nM; in that of `CCC1(CC)CC(=O)N(C2CC(C(=O)N(C)C)Oc3ccc(C(=O)N[C@@H]4c5ccccc5OC(C)(C)[C@H]4O)cc32)C(=N)N1` (stereo partly drawn) [Example 306, 4-(4,4-diethyl-2-imino-6-oxo-hexahydropyrimidin-1-yl)-N6-[(3S,4R)-3-hydroxy-2,2-dimethyl-chroman-4-yl]-N2,N2-dimethyl-chromane-2,6-dicarboxamide], 27.4 nM.
Consider `CC[C@]1(C)CC(=O)N([C@H]2c3cc(C(=O)N[C@@H]4c5ccccc5C[C@@]4(C)O)ccc3OC[C@@H]2COC)C(=N)N1` [Example 202, (3S,4R)-4-[(4R)-4-ethyl-2-imino-4-methyl-6-oxo-hexahydropyrimidin-1-yl]-N-[(1R,2R)-2-hydroxy-2-methyl-indan-1-yl]-3-(methoxymethyl)chromane-6-carboxamide], for which the EC50 turned out to be 0.8 nM.
On to `CC1(C)CC(=O)N(C2c3cc(C(=O)N[C@@H]4c5ccccc5C[C@@]4(C)O)ccc3OC2(C)C)C(=N)N1` (stereo partly drawn) [Example 107, N-[(1R,2R)-2-hydroxy-2-methyl-indan-1-yl]-3-(2-imino-4,4-dimethyl-6-oxo-hexahydropyrimidin-1-yl)-2,2-dimethyl-3H-benzofuran-5-carboxamide], for which the EC50 was 222 nM.
As for `CCC1(CC)CC(=O)N([C@@H]2CCOc3ccc(C(=O)N[C@H]4CC(C)(C)Oc5ccc(F)cc54)cc32)C(=N)N1` [Example 7A, (R)-4-(4,4-diethyl-2-imino-6-oxotetrahydropyrimidin-1(2H)-yl)-N-((S)-6-fluoro-2,2-dimethylchroman-4-yl)chromane-6-carboxamide], the EC50 came to 0.4 nM.
For the molecule `CCC1(CC)CC(=O)N([C@@H]2CCS(=O)(=O)c3ccc(C(=O)N[C@@H]4c5ccccc5OC(C)(C)[C@H]4O)cc32)C(=N)N1` [Example 71A, (R)-4-(4,4-diethyl-2-imino-6-oxotetrahydropyrimidin-1(2H)-yl)-N-((3S,4R)-3-hydroxy-2,2-dimethylchroman-4-yl)thiochromane-6-carboxamide 1,1-dioxide], the response was half-maximal at 3.5 nM (EC50).
The same measure, in the same setting: the result for `C[C@H]1C[C@H](N2C(=N)NC(C)(C)CC2=O)c2cc(C(=O)N[C@@H]3c4ccccc4OC(C)(C)[C@H]3O)ccc21` [Example 139, (1S,3S)-N-[(3S,4R)-3-hydroxy-2,2-dimethyl-chroman-4-yl]-3-(2-imino-4,4-dimethyl-6-oxo-hexahydropyrimidin-1-yl)-1-methyl-indane-5-carboxamide] reads 180 nM; that for `CCC1(CC)CC(=O)N([C@@H]2Cc3ccc(C(=O)N[C@@H]4c5ccccc5C[C@H]4O)cc32)C(=N)N1` [Example 83, (8R)-8-(4,4-diethyl-2-imino-6-oxo-hexahydropyrimidin-1-yl)-N-[(1R,2R)-2-hydroxyindan-1-yl]bicyclo[4.2.0]octa-1(6),2,4-triene-3-carboxamide], 20 nM.
`CC[C@]1(C)CC(=O)N([C@@H]2CCOc3ccc(C(=O)NC4c5cc(F)ccc5OCC4O)cc32)C(=N)N1` (stereo partly drawn) [Example 151, (4R)-4-[(4R)-4-ethyl-2-imino-4-methyl-6-oxo-hexahydropyrimidin-1-yl]-N-(6-fluoro-3-hydroxy-chroman-4-yl)chromane-6-carboxamide] displayed an EC50 of 5.4 nM. This EC50 is about 3.7-fold lower than that of the molecule before.
Still for that read-out and setting: in the case of `CCC1(CC)CC(=O)N([C@@H]2C[C@@H](COCCOCCOCCNC(C)=O)Oc3ccc(C(=O)N[C@H]4CC(C)(C)Oc5ccccc54)cc32)C(=N)N1` [Example 312, (2S,4R)-2-[2-[2-(2-acetamidoethoxy)ethoxy]ethoxymethyl] -4-(4,4-diethyl-2-imino-6-oxo-hexahydropyrimidin-1-yl)-N-[(4S)-2,2-dimethylchroman-4-yl]chromane-6-carboxamide] it was 53.9 nM.
Molecule `CC1(C)CC(=O)N([C@@H]2CCOc3ccc(C(=O)N[C@@H]4c5cc(F)ccc5OC(C)(C)[C@H]4O)cc32)C(=N)N1` [Example 189, (4R)-N-[(3S,4R)-6-fluoro-3-hydroxy-2,2-dimethyl-chroman-4-yl]-4-(2-imino-4,4-dimethyl-6-oxo-hexahydropyrimidin-1-yl)chromane-6-carboxamide] displayed an EC50 of 1 nM.
